Values of other authors in patent US20240252403A1, “SKIN CARE COMPOSITION FOR APPLICATION TO SKIN” (COSMED PHARMACEUTICAL CO., LTD., priority 2021, published 2024).

saturation solubility [g/100 g] | SMILES
13.0 | N[C@@H](CCC(=O)N[C@@H](CS)C(=O)NCC(=O)O)C(=O)O [glutathione]
7.9 | NCCS(=O)(=O)O [taurine]

SMILES | saturation solubility [g/100 g]
Cc1ncc(CO)c(CO)c1O.Cl [pyridoxine hydrochloride] | 22.0
